In US20170190705A1, “Compositions and Methods for Inhibiting BMP” (THE BRIGHAM AND WOMAN'S HOSPITAL, INC., priority 2014, published 2017):
Read-outs that look alike come from different tables or passages of the source.

How the values were obtained:
[1] = target: T1, ALK2 (Homo sapiens, UniProt Q04771, Q207D); test: Thermal shift kinase assay ALK2; assay type: binding; conditions: for ΔTmDiff.: ALK2 minus ALK5
T1 construct: His tag (TEV-cleavable) (N, cleaved yes); made in house; host or cells: Sf9 insect cells (baculovirus)
T1 sequence (Q04771 201-499 Q207D): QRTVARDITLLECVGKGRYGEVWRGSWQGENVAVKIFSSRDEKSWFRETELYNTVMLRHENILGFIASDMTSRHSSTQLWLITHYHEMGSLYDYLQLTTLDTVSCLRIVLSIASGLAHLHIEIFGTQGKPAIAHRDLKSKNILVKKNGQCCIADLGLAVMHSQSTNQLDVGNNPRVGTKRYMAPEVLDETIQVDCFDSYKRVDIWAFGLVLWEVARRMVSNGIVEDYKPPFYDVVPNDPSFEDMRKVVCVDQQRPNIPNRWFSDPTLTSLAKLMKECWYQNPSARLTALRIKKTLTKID
Description: (§1) Thermal melting experiments were performed using a Real Time PCR machine Mx3005p (Stratagene) with a protein concentration of 1-2 μM and 10 μM inhibitor as described by Niesen et al., Nat Protoc 2007, 2, 2212-21. Recombinant human kinases for DSF screening were prepared by SGC using the published methods of Sanvitale et al., PLoS One 2013, 8, e62721. The potency and selectivity of certain compounds of the invention based on thermal shift kinase and ligand induced transcriptional activity assays are shown in Table 2.

[2] = target: T2, ALK5 (Homo sapiens, UniProt P36897); test: Thermal shift kinase assay ALK5; assay type: binding
T2 construct: made in house
T2 sequence (P36897 34-503): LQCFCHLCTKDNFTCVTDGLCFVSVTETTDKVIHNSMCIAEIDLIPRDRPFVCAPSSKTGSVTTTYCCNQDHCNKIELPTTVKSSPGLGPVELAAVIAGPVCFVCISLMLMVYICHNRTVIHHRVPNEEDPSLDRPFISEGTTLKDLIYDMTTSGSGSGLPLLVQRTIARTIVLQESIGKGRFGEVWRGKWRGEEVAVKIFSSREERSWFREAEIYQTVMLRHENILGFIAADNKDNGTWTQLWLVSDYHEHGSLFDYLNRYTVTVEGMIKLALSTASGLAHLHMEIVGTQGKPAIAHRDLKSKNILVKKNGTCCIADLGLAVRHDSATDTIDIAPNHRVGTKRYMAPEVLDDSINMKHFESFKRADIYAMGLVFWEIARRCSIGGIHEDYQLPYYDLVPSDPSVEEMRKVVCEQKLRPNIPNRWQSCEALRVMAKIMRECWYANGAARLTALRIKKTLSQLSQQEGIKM
Description: as §1

[3] = tested on: HePG2 hepatocarcinoma cells; assay type: cell-based; conditions: human
Description: The cells were incubated for 2 h (37° C. and 5% CO2) and allowed to settle and attach. Compounds of interest or DMSO were diluted in DMEM and added at final compound concentrations of 1 μM, 10 μM, and 100 μM. Cells were incubated for 4 hours and 24 hours after which the media was discarded. Cells were lysed by adding 30 μL of passive lysis buffer (Promega) and shaken at RT for 15 min. Cell viability was determined by quantifying the ATP present in each well by adding 10 μL of CellTiter-Glo (Promega) per well and measuring the light output Spectramax L luminometer (Molecular Devices) with an integration time of one second per well. Data was normalized to 100% viability for cells receiving only DMSO without any concurrent compound.

[4] = target: T3, caALK1 (Homo sapiens, UniProt P37023, Q201D); test: Luciferase reporter assay constitutively active ALK1; conditions: read-out: Cell Based Assay caALK1 IC50
T3 construct: expressed in transfected cells; host or cells: C2C12 BRE-Luc cells infected with adenovirus (MOI 100)
T3 sequence (P37023 22-503 Q201D): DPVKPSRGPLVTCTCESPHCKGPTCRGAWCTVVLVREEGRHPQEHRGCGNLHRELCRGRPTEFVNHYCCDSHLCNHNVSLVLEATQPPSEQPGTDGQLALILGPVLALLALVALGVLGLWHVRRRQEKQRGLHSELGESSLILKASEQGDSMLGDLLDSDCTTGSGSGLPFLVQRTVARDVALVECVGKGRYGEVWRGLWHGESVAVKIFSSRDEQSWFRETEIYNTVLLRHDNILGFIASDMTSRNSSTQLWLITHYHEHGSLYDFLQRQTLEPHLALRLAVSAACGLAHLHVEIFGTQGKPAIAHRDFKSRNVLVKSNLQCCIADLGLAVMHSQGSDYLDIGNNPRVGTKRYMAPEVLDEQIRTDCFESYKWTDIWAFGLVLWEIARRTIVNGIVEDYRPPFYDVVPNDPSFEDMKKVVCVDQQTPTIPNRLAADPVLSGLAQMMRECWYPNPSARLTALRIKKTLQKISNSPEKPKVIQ
Description: (§2) The cells were incubated for 1 h (37° C. and 10% CO2) and allowed to settle and attach. Compounds of interest or DMSO were diluted in DMEM and added at final compound concentrations of 1 nM to 10 μM. Cells were then incubated for 30 min. Adenovirus expressing constitutively active BMP and TGF-β type I receptors (Ad.caALK1-5), generously provided by Dr. Akiko Hata (University of to California at San Francisco), were added to achieve a multiplicity of infection (MOI) of 100. Plates were incubated overnight at 37° C. Cell viability was assayed with an MIT (3-(4,5-dimethylthiazol-2-yl)-2,5-diphenyl tetrazolium bromide) colorimetric assay (Promega) per the manufacturer's instructions. Media was discarded, and firefly luciferase activity was measured (Promega) according to manufacturer's protocol. Light output was measured using a Spectramax L luminometer (Molecular Devices) with an integration time of one second per well. Data was normalized to 100% of incremental BRE-Luc activity due to adenoviruses specifying caALK1, 2, or 3, or the incremental CAGA-Luc activity due to adenoviruses specifying caALK4 or 5.

[5] = target: T4, caALK3 (Homo sapiens, UniProt P36894, Q233D); test: Luciferase reporter assay constitutively active ALK3; conditions: read-out: Cell Based Assay caALK3 IC50
T4 construct: expressed in transfected cells; host or cells: C2C12 BRE-Luc cells infected with adenovirus (MOI 100)
T4 sequence (P36894 24-532 Q233D): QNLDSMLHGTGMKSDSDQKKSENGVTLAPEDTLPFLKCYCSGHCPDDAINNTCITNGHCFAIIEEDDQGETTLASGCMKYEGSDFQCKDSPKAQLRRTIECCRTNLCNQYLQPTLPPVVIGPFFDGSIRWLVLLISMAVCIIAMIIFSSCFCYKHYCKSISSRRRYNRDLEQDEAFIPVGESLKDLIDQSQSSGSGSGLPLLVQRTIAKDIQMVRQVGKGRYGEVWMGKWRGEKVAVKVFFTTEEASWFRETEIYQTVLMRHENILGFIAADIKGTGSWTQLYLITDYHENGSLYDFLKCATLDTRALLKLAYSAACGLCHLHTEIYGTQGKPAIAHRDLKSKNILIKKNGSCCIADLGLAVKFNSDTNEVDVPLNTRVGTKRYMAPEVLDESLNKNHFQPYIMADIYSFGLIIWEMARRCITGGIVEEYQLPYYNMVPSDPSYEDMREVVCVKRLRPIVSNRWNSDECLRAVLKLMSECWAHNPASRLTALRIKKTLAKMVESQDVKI
Excerpt: as §2, with “C2Cl2 […] cells stably transfected with BMP responsive element from the Id promoter fused to luciferase reporter gene (BRE-Luc) were generously provided by Dr. Peter ten Dijke (Leiden University Medical Center, NL) following the methods described by Zilberberg et al., BMC cell biology 2007, 8, 41-50. Human embryonic kidney 293T cells stably transfected with the TGF-β responsive element from the PAI-1 promoter fused to luciferase reporter gene (CAGA-Luc) were generously provided by Dr. Howard Weiner (Brigham and Women's Hospital, Boston, Mass.) following the methods described by Oida et al., PloS one 2011, 6, e18365. C2Cl2 Bre-Luc and 293T CAGA-Luc cells were seeded in DMEM supplemented with 2% FBS at 20,000 cells per well in tissue culture treated 96-well plates (Costar® 3610; Corning). The” for “The”

[6] = target: T5, caALK4 (Homo sapiens, UniProt P36896); test: Luciferase reporter assay constitutively active ALK4; conditions: read-out: Cell Based Assay caALK4 IC50
T5 sequence (P36896 1-505 T206D): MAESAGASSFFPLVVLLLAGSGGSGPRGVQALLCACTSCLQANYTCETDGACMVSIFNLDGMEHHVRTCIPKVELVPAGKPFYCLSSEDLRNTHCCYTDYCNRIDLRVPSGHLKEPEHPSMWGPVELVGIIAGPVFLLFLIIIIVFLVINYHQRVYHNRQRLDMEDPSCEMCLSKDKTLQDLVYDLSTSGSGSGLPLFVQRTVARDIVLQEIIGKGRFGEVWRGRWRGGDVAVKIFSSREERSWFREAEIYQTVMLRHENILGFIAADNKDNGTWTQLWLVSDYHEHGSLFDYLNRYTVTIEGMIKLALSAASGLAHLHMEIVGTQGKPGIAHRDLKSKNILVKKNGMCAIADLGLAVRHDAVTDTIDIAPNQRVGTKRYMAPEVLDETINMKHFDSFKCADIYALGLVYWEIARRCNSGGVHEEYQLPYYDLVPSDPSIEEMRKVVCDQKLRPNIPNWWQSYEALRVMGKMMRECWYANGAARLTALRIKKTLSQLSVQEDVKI
Excerpt: as §2, with “C2Cl2 […] cells stably transfected with BMP responsive element from the Id promoter fused to luciferase reporter gene (BRE-Luc) were generously provided by Dr. Peter ten Dijke (Leiden University Medical Center, NL) following the methods described by Zilberberg et al., BMC cell biology 2007, 8, 41-50. Human embryonic kidney 293T cells stably transfected with the TGF-β responsive element from the PAI-1 promoter fused to luciferase reporter gene (CAGA-Luc) were generously provided by Dr. Howard Weiner (Brigham and Women's Hospital, Boston, Mass.) following the methods described by Oida et al., PloS one 2011, 6, e18365. C2Cl2 Bre-Luc and 293T CAGA-Luc cells were seeded in DMEM supplemented with 2% FBS at 20,000 cells per well in tissue culture treated 96-well plates (Costar® 3610; Corning). The” for “The”

[7] = tested on: BMP6; test: Ligand induced transcriptional activity assay BMP6 (BRE-Luc); assay type: cell-based; conditions: for IC50: cell-based signaling inhibition, read-out: BMP6 IC50; for Fold Select.: TGFβ1 vs BMP6
[8] = tested on: TGFβ1; test: Ligand induced transcriptional activity assay TGFβ1 (CAGA-Luc); conditions: Homo sapiens; cell-based signaling inhibition

Row | Compound | ΔTm at 10 µM ([1]; 10 μM inhibitor) | ΔTmDiff. [1] | ΔT ALK2 ([1]; Table 6) | ΔT Diff. ([1]; Table 6, ALK2 minus ALK5) | ΔTm at 10 µM ([2]; 10 μM inhibitor) | ΔT ALK5 ([2]; Table 6) | Cell viability ([3]; 4 h, 1 μM) | Cell viability ([3]; 4 h, 10 μM) | Cell viability ([3]; 24 h, 1 μM) | Cell viability ([3]; 24 h, 10 μM) | IC50 [4] | IC50 [5] | IC50 [6] | IC50 [7] | IC50 [8] | Cell viability ([3]; 4 h, 100 μM) | Fold Select. [7] | Cell viability ([3]; 24 h, 100 μM)
1 | COc1cc(-c2cncc(-c3ccc(N4CCNCC4)cc3)c2)cc(OC)c1OC [Compound 26, 1-(4-(5-(3,4,5-trimethoxyphenyl)pyridin-3-yl)phenyl)piperazine] | 14 °C | 3.7 | 14.1 °C | 3.7 °C | 10.4 °C | 10.4 °C | 96% | 103% | 103% | 80% | 202 nM | 105 nM | 427 nM |  |  |  |  | 
2 | COc1cc(-c2cc(-c3ccc(N4CCNCC4)cc3)cnc2N(C)C)cc(OC)c1OC [Compound 25, N,N-dimethyl-5-(4-(piperazin-1-yl)phenyl)-3-(3,4,5-trimethoxyphenyl)pyridin-2-amine] |  | 0.1 |  |  |  |  | 92% | 103% | 101% | 91% |  |  |  | 1700 nM | 15000 nM | 95% |  | 
3 | COc1cc(-c2cc(-c3ccc(N4CCNCC4)cc3)cnc2OC)cc(OC)c1OC [Compound 28, 1-(4-(6-methoxy-5-(3,4,5-trimethoxyphenyl)pyridin-3-yl)phenyl)piperazine] |  | 0.1 |  |  |  |  | 92% | 102% | 99% | 98% |  |  |  | 1700 nM | 82000 nM |  |  | 
4 | COc1cc(-c2cc(-c3ccc(N4CCNCC4)cc3)cnc2Cl)cc(OC)c1OC [Compound 27, 1-(4-(6-chloro-5-(3,4,5-trimethoxyphenyl)pyridin-3-yl)phenyl)piperazine] |  | 3.8 |  |  |  |  | 95% | 103% | 101% | 98% |  |  |  | 170 ± 60 nM | 90000 nM | 97% | 244 | 
5 | COc1cc(-c2cnc(N)c(-c3cc(OC)c(OC)c(OC)c3)c2)ccc1O [Compound 12, 4-(6-amino-5-(3,4,5-trimethoxyphenyl)pyridin-3-yl)-2-methoxyphenol] |  | 1.7 |  |  |  |  | 96% | 103% | 97% | 88% |  |  |  | 90 ± 30 nM | 2300 nM | 93% |  | 89%
6 | COc1cc(OC)cc(-c2cc(-c3ccc(N4CCNCC4)cc3)cnc2N)c1 [Compound 17, 3-(3,5-dimethoxyphenyl)-5-(4-(piperazin-1-yl)phenyl)pyridin-2-amine] |  | 3.5 |  |  |  |  | 95% | 99% | 99% | 80% |  |  |  | 40 ± 10 nM |  |  |  | 
7 | COc1cc(-c2cc(-c3ccc(O)cc3)cnc2N)cc(OC)c1OC [Compound 11, 4-(6-Amino-5-(3,4,5-trimethoxyphenyl)pyridin-3-yl)phenol] |  | 1.5 |  |  |  |  | 95% | 98% | 99% | 89% |  |  |  | 20 ± 1 nM | 580 ± 50 nM | 91% | 28 | 82%
